Measurements published in US5908868A, “Retinol derivatives useful for enhancing immune response” (priority 1995, dated 1999).
“Also recorded” adds a separate entry of the source.

How the values were obtained:
lymph node T cells = assay: Proliferation of anti-CD3 activated lymph node T cells; format: cell-based, BALB/c mouse; details: anti-CD3
Source text: (§1) Growth curves of lymph node T cells depleted of antigen-presenting cells (FIG. 17A) with and without 10^-6 M retinol at 2×10^5 and 5×10^4 cells/well. (FIG. 17B) Dose-responses elicited by different retinoids in cultures of lymph node T cells depleted of antigen-presenting cells. Also shown are the growth curves of CD4^+ (FIG. 17C) and CD8^+ T lymphocytes (FIG. 17D) in the presence of either retinol, 14HRR, human serum or in their absence.
(§2) T lymphocytes, purified as described, 5×10^4 well, were activated with immobilized anti-CD3 antibody in ITLB medium. The indicated amounts of retinoids or human serum were added at initiation of cultures. […] 14HRR was added every 12 hours. DNA synthesis was measured by a 4 hour pulse with tritiated thymidine. SDs were ≤17%.
Mature T cells were obtained from pooled intestinal, axillary, inguinal and submandibular lymph nodes of 4 to 10-week-old BALB/c mice. To fractionate cells into CD4 and CD8 subsets and at the same time remove APC, a combination of adherence and complement lysis was used as follows:
Cells were cultured in serum-free medium, referred to as ITLB, containing RPMI 1640 supplemented with 8×10^-7 M insulin (5 μg/ml), 7×10^-8 M transferrin (5 μg/ml), 2×10^-6 M linoleic acid, 2×10^-6 M delipidated BSA (0.12 mg/ml), 2 mM L-glutamine, 1 mM sodium pyruvate and antibiotics. They were seeded into 96-well flat-bottom plates at varying cellular densities in a final volume of 100 μl. In control experiments, cells were cultured in medium containing 10% FCS or 3% human serum and 5×10^-5 M 2 ME. T cells and thymocytes were activated with immobilized, purified anti-mab CD3e or by the addition of Con A in the presence or absence of different concentrations of retinoids. Unless indicated otherwise, retinoids were replenished every 12 hours to maintain a reasonably constant concentration of these labile compounds in culture. The optimal concentration for stimulation of T cells was determined for each batch of anti-CD3 mAb and Con A. The optimal range of Con A was particularly narrow in serum-free medium (0.5-0.2 μg/ml) and varied with the cell density used. […] Cultures were carried out in duplicate. Plates were incubated at 37° C. in a humidified 5% CO2 atmosphere. Cellular proliferation was determined by [^3 H] thymidine uptake (0.5 uCi/well; New England Nuclear, Boston, Mass.) after the incubation times indicated for each experiment with a 4 hour labeling pulse. Cells were harvested onto glass filter and [^3 H]TdR incorporation was determined by liquid scintillation counting. The data presented are the means of duplicate or six replicate cultures. The restriction to duplicate measurements was necessary to conserve scarce 14HRR. They were within 20% of each other. Each experiment was repeated at least twice.

CD8+ T lymphocytes = assay: Proliferation of anti-CD3 plus IL-2 activated CD8+ T lymphocytes; format: cell-based, BALB/c mouse
Source text: as §1, §2
The cell suspension in a volume of 2 ml was applied to a nylon wool column (40) (0.6 g of washed nylon fibers in the barrel of a 10 ml syringe) and incubated at 37° C. for 40 min. The non-adherent cells were recovered by washing with warm serum-free medium at a flow rate of 1 ml/min. […] The success of the enrichment procedures was monitored cytofluorimetrically using FITC-conjugated anti-CD8 and PE-conjugated anti-CD4. […]

T cells = assay: T cell activation/proliferation; format: cell-based, murine; details: for T cell activation on its own: without mitogen; for substitution for retinol in T cell activation: with mitogen/anti-CD3
Description: They were seeded into 96-well flat-bottom plates at varying cellular densities in a final volume of 100 μl. In control experiments, cells were cultured in medium containing 10% FCS or 3% human serum and 5×10^-5 M 2 ME. […] Cultures were carried out in duplicate. Plates were incubated at 37° C. in a humidified 5% CO2 atmosphere. Cellular proliferation was determined by [^3 H] thymidine uptake (0.5 uCi/well; New England Nuclear, Boston, Mass.) after the incubation times indicated for each experiment with a 4 hour labeling pulse. Cells were harvested onto glass filter and [^3 H]TdR incorporation was determined by liquid scintillation counting. The data presented are the means of duplicate or six replicate cultures. The restriction to duplicate measurements was necessary to conserve scarce 14HRR. […] Each experiment was repeated at least twice.

B lymphocytes = details: cited from earlier work
[1] = previous analyses with B lymphocytes (33)

Row | Compound | stimulation of lymph node T cells (lymph node T cells) | response to activating signal (CD8+ T lymphocytes) | activation in FCS-containing medium in absence of APC (T cells; additional retinol supplied, FCS medium) | optimally effective dose (T cells; given once in a 3-day culture) [µM] | optimally effective dose (T cells; provided at 12 hour intervals) [µM] | T cell activation on its own (T cells) | support of B cell growth/proliferation (B lymphocytes; previous studies) | activity relative to all-trans retinol in T cells (T cells) | substitution for retinol in T cell activation (T cells) | substitution for retinol in T cell activation (T cells; listed as 14-hydroxy-retro-retinol) | potency relative to retinol in preventing necrotic cell death (B lymphocytes; on a concentration basis, previous studies) | concentration at which activity was demonstrated (B lymphocytes; [1]) [µM] | difference in active concentration, 14HRR versus retinal (B lymphocytes; [1]) [fold]
1 | CC1=C(/C=C/C(C)=C/C=C/C(C)=C/CO)C(C)(C)CCC1 [retinol, all-trans retinol] | dependent on the presence of retinol | responded to the activating signal | no activation | 2 | 0.2 | unable to activate T cells on their own | necessary for the growth of B lymphocytes |  |  |  |  |  | 
2 | CC(C=CC=C(C)C(O)CO)=CC=C1C(C)=CCCC1(C)C (centres unmarked) [14HRR, 14-hydroxy-4,14-retro-retinol] | effective over the same dose range as observed for thymocytes | responded to the activating signal |  |  |  | unable to activate T cells on their own | capable of supporting the proliferation of B cells in the absence of an external supply of retinol | as active | capable of supporting T cell activation and proliferation | effectively supports T cell activation in conjunction with a mitogen in lieu of retinol; also recorded: capable of supporting activation and sustaining proliferation of T cells | 20-40 times more potent | 5 | 40
